Test results: PMC9478491, “Therapeutic effects and mechanisms of N-(9,10-anthraquinone-2-ylcarbonyl) xanthine oxidase inhibitors on hyperuricemia” (Frontiers in Pharmacology, 2022)
Values joined by “and” are separate entries in the source; they are usually repeats but may differ in a detail not shown here. Equal entries are not always repeated. Where two headings read alike, the source gives them in different places.

Key:
rats = test system: rats; design: method as in Izmerov et al., 1982; settings: ref Izmerov et al., 1982; cited from earlier work
mice = test system: mice; design: method as in Izmerov et al., 1982; settings: ref Izmerov et al., 1982; cited from earlier work
[1] = test system: potassium oxonate-induced hyperuricemia mice; assay: UA, CRE and BUN in serum and urine of hyperuricemia mice; assay type: in vivo, mouse; settings: allopurinol 10 mg/kg gavage, 7 days
Description: Ninety SPF male KM mice (20 ± 2 g) were maintained in a normally controlled breeding room with standard laboratory food and water for 1 week prior to the experiments. The uricase inhibitor potassium oxonate was used to induce hyperuricemia in mice, according to previous reports ([Chen et al., 2019]).
Potassium oxonate (model drug), NAY (drug to be tested), and allopurinol (positive drug) were dissolved or suspended in double steaming water. The drug dose used is expressed in “mg/kg.” The dose given for each dose is converted based on the body surface area conversion method. […] Except the normal control mice, others were orally administered by 250 mg/kg potassium oxonate once daily for seven consecutive days to induce hyperuricemia. […] After 7 days’ treatment, diets were removed from the cages 12 h before the animals were sacrificed. The blood was allowed to clot for approximately 1 h at room temperature and centrifuged at 3,000 rpm for 10 min to obtain serum. Serum was divided into three portions, one to detect biochemical markers such as UA, one to detect inflammatory factors, and the remaining stored at−20°C as a backup. […]
The levels of serum UA, CRE, and BUN were measured by using the method recommended in the purchase kit. The levels of serum TNF-α, IL-6, and NLRP3 were measured by using the method recommended in the ELISA kits.

XOD [2] = assay type: cell-based, mouse; settings: AML12 cells, allopurinol 100 μmol/L, p < 0.001
XOD [3] = assay: Western blot, XOD protein in AML12 cells; assay type: cell-based, mouse; settings: allopurinol 100 μmol/L, p < 0.01
Description: The total protein of HK-2 cells and AML12 cells were extracted with total protein extraction kit, and the concentration was determined by the BCA kit. Electrophoresis, membrane transfer, antibody incubation, and other operations were performed in accordance with the Western blot experiment procedures. The protein bands were quantified by ImageJ software and normalized to individual β-actin expression levels.

[4] = test system: potassium oxonate-induced hyperuricemia mice; assay: Morphology (HE) of renal and liver tissue in hyperuricemia mice; assay type: in vivo, mouse; settings: allopurinol 10 mg/kg
Source text: The liver and kidney tissues fixed in paraformaldehyde were dehydrated to be transparent. Then put the transparent tissue block into the melted paraffin, and embed it after the paraffin is completely immersed in the tissue block. Fix the embedded wax block on the microtome and cut it into 5 μm thin slices. The thin slice is ironed in hot water, then pasted on the glass slide, and dried. Before staining, paraffin wax in the sections was removed with xylene, then soaked with high to low concentration alcohol, and finally soaked in distilled water for 2 min. The dewaxed and rehydrated slices were stained in hematoxylin solution for several minutes and then washed with running water. Then put the slices into 1% hydrochloric alcohol (5–10 s) and rinse with tap water, after rinsing, place the slices in distilled water. After 2 min, the slices were removed and dehydrated with […]. After dehydration, the slices were stained with alcohol eosin solution for 2–3 min. After dehydration by alcohol, xylene was used to make the slices transparent. Finally, the transparent slices were dripped with gum and sealed with a cover glass.
Potassium oxonate (model drug), NAY (drug to be tested), and allopurinol (positive drug) were dissolved or suspended in double steaming water. […]

AML12 cells = assay: Culture supernatant UA level of hyperuricemia AML12 cells; assay type: cell-based, mouse; settings: allopurinol 100 μmol/L, p < 0.001
Description: AML12 cells in logarithmic growth were digested with trypsin, and cell suspension was made by pipette blowing. After counting with a blood counting plate, the cells were diluted to 10^5 cells/mL, and 1 ml of each well was inoculated in a medium dish. The cells were placed in a 5% (V/V) CO2 cell incubator at 37 °C for 24 h. 24 h later, the cell supernatant was discarded, washed with PBS for three times, and the adenosine solution prepared with the current basic medium without fetal bovine serum as the solvent was added. The dosage of adenosine was 1.5 mmol/L, and the cells were placed in the cell culture box for further incubation for 24 h. The culture dish was taken out, 0.005 IU xanthine oxidase (XO) was added to each well, and incubated in the cell incubator for 24 h, and then the hyperuricemia liver cell model was obtained.
AML12 cells were cultured in complete medium at 37 °C and a 5% CO2 cell incubator. Logarithmic growth cells were made into cell suspension with trypsin. The cells were inoculated into 24-well plates at the concentration of 10^5 cells/ml and cultured in a cell incubator at 37°C and 5% CO2 for 24 h. After the cells adhered to the wall, the medium in 24-well plates was discarded and washed with PBS for three times. […] After 24 h, the model and administration groups were washed with PBS for three times. […]

HK-2 cells = assay: Culture supernatant UA level of hyperuricemia HK-2 cells; assay type: cell-based, human; settings: allopurinol 100 μmol/L
Description: According to the establishment method of HK-2 cells, hyperuricemia model was reported in the literature ([Hou et al., 2019]), and HK-2 cells was cultured in a complete medium in a 5% CO2, 37°C cell incubator. The cells in the logarithmic growth phase were inoculated on a 24-well plate at a concentration of 10^5 cells/ml. The cells were cultured in a 37 °C incubator for 24 h. 24 h later, discard the culture medium, and wash cells by PBS for three times. Add 2.5 mmol/L adenosine solution prepared from the incomplete medium to each well and incubate in the incubator for 24 h. Then 0.005 IU/mg XO solution was added to each well in the 24-well plate, and the supernatant was collected after incubation for 12 h. The absorbance was measured on the microplate reader using the UA kit.
Hk-2 cells were cultured in a 5% CO2 cell incubator at 37 °C in complete medium. The cells in the logarithmic growth phase were inoculated on a 24-well plate at a concentration of 10^5 cells/ml and cultured in a 5% CO2 cell incubator at 37°C for 24 h. After 24 h, the culture medium was discarded and washed with PBS for three times. […] After 24 h, the model and drug administration groups were washed with PBS for three times, and the model and drug administration groups were added with 2.5 mmol/L adenosine solution prepared with incomplete whole medium and incubated in an incubator for 24 h. […]

patients = test system: patients; design: method as in Madero et al., 2009; Liu et al., 2016; settings: patients taking allopurinol; ref Madero et al., 2009; Liu et al., 2016; cited from earlier work
[5] = Pharmacokinetics in rats (HPLC-MS/MS, WinNonlin); assay type: in vivo, SD rats
Description: The volume of intravenous administration was 1 ml/250 g, and the volume of oral administration was 1 ml/100 g. Whole blood was collected at 2, 5, 10, 20, 30, 60, 120, 240, 360, 480, 720, and 1440 min after intravenous administration. The rats’ blood was transferred to the heparinized test tube. The whole blood was centrifuged at 8,000 rpm for 5 min, and the plasma was separated and stored in a refrigerator at -80°C for testing.

[6] = test system: TNF-α, IL-6, IL-1β, NLRP3; assay: TNF-α, IL-6, IL-1β, NLRP3 in HK-2 culture supernatant (ELISA); assay type: cell-based, human; settings: HK-2 cells, allopurinol 100 μmol/L, p < 0.01
Source text: The culture, induction, and administration of hyperuricemia HK-2 cells were the same as described earlier. Finally, the supernatant of the culture medium was collected to detect the levels of inflammatory factors. ELISA kits were used to detect the supernatant TNF-α, IL-6, IL-1β, and NLRP3 levels of the culture medium.

[7] = allopurinol, rats, gavage 50 mg/kg, n = 3
[8] = allopurinol, rats, gavage 50 mg/kg, single animals, 50 mg/kg
[9] = allopurinol, rats, intravenous injection 5 mg/kg, single animals, 5 mg/kg

## O=C1c2ccccc2C(=O)c2ccccc21 [AQ, 9,10-anthraquinone]
rats
  acute oral toxicity LD50: > 5,000 mg/kg BW
mice
  acute oral toxicity LD50: > 5,000 mg/kg BW

## Oc1ncnc2[nH]ncc12 [allopurinol]
[1]
  serum UA, CRE and BUN levels vs model group: obviously decreased the aforementioned indexes
XOD [2]
  XOD activity vs model group: effect of the allopurinol group on reducing XOD viability and the level of supernatant UA were obvious
XOD [3]
  XOD protein expression vs model group: significantly reduced
[4]
  liver tissue morphology (HE): many inflammatory cell infiltrates with a small number of hepatocyte necrosis
  renal tissue morphology (HE): Renal cortical inflammatory cell infiltration and marked tubular luminal expansion
AML12 cells
  supernatant UA level vs model group: effect of the allopurinol group on reducing XOD viability and the level of supernatant UA were obvious
HK-2 cells
  UA levels in hyperuricemia cell model: could reduce UA levels
patients
  patients who can reduce serum UA concentration to the target level: less than 40%
[5]; SD, rat, plasma, iv, 5 mg/kg, allopurinol, rats, intravenous injection 5 mg/kg, n = 3, read-out: AUC (0–t), Average
  AUC(0-t): 1540 ng·h/mL
[5]; SD, rat, plasma, iv, 5 mg/kg, allopurinol, rats, intravenous injection 5 mg/kg, n = 3, read-out: AUC (0–∞), Average
  AUC(0-inf): 1590 ng·h/mL
[5]; SD, rat, plasma, iv, 5 mg/kg, allopurinol, rats, intravenous injection 5 mg/kg, n = 3, read-out: MRT (0–∞), Average
  MRT inf: 0.27 h
[5]; SD, rat, plasma, iv, 5 mg/kg, allopurinol, rats, intravenous injection 5 mg/kg, single animals, read-out: AUC (0–t), individual rats 1-3
  AUC(0-t): 1600 ng·h/mL
[5]; SD, rat, plasma, iv, 5 mg/kg, allopurinol, rats, intravenous injection 5 mg/kg, single animals, read-out: AUC (0–∞), individual rats 1-3
  AUC(0-inf): 1650 ng·h/mL
[5]; SD, rat, plasma, iv, 5 mg/kg, allopurinol, rats, intravenous injection 5 mg/kg, single animals, read-out: MRT (0–∞), individual rats 1-3
  MRT inf: 0.27 h
[5]; SD, rat, plasma, iv, 5 mg/kg, allopurinol, rats, intravenous injection 5 mg/kg, read-out: AUC0-∞
  AUC(0-inf): 1590 ± 139 ng·h/mL
[5]; SD, rat, plasma, iv, 5 mg/kg, read-out: C2min (drug concentration in plasma)
  concentration at 2 min: 5280 ± 686 ng/mL
[5]; SD, rat, plasma, iv, 5 mg/kg, read-out: elimination rate constant K (converted)
  k el: 0.000964 s⁻¹
[5]; SD, rat, plasma, oral, 50 mg/kg, read-out: F
  bioavailability: 158%
[5]; SD, rat, plasma, po, 50 mg/kg, allopurinol, rats, gavage 50 mg/kg, n = 3, read-out: AUC (0–t), Average
  AUC(0-t): 24500 ng·h/mL
[5]; SD, rat, plasma, po, 50 mg/kg, allopurinol, rats, gavage 50 mg/kg, n = 3, read-out: AUC (0–∞), Average
  AUC(0-inf): 25100 ng·h/mL
[5]; SD, rat, plasma, po, 50 mg/kg, allopurinol, rats, gavage 50 mg/kg, n = 3, read-out: Cmax, Average
  Cmax: 6610 ng/mL
[5]; SD, rat, plasma, po, 50 mg/kg, allopurinol, rats, gavage 50 mg/kg, n = 3, read-out: MRT (0–∞), Average
  MRT inf: 2.36 h
[5]; SD, rat, plasma, po, 50 mg/kg, allopurinol, rats, gavage 50 mg/kg, single animals, read-out: AUC (0–t), individual rats 1-3
  AUC(0-t): 27500 ng·h/mL
[5]; SD, rat, plasma, po, 50 mg/kg, allopurinol, rats, gavage 50 mg/kg, single animals, read-out: AUC (0–∞), individual rats 1-3
  AUC(0-inf): 28700 ng·h/mL
[5]; SD, rat, plasma, po, 50 mg/kg, allopurinol, rats, gavage 50 mg/kg, single animals, read-out: Cmax, individual rats 1-3
  Cmax: 6100 ng/mL
[5]; SD, rat, plasma, po, 50 mg/kg, allopurinol, rats, gavage 50 mg/kg, single animals, read-out: MRT (0–∞), individual rats 1-3
  MRT inf: 2.88 h
[5]; SD, rat, plasma, po, 50 mg/kg, read-out: Tmax, individual rats 1-3
  Tmax: 1 h
[5]; SD, rat, plasma, po, 50 mg/kg, read-out: calculated bioavailability
  bioavailability: 158%
[5]; [7]
  Tmax, Average: 1.00 h
  V/F, Average: 3.18 L/kg
[5]; allopurinol, rats, gavage 50 mg/kg, single animals
  Tmax, individual rats 1-3: 1.00 h
[5]; [8]
  AUC (0–t), individual rats 1-3: 19623.63 ng·h/mL and 26462.91 ng·h/mL
  AUC (0–∞), individual rats 1-3: 20029.34 ng·h/mL and 26666.72 ng·h/mL
  Cmax, individual rats 1-3: 5,968.97 ug/L and 7742.83 ug/L
  MRT (0–∞), individual rats 1-3: 1.84 h and 2.35 h
  V/F, individual rats 1-3: 3.19 L/kg and 3.81 L/kg and 2.53 L/kg
[5]; allopurinol, rats, intravenous injection 5 mg/kg, n = 3
  V, Average: 0.92 L/kg
[5]; [9]
  AUC (0–t), individual rats 1-3: 1383.23 ng·h/mL and 1648.60 ng·h/mL
  AUC (0–∞), individual rats 1-3: 1432.09 ng·h/mL and 1687.42 ng·h/mL
  MRT (0–∞), individual rats 1-3: 0.29 h
  V, individual rats 1-3: 0.91 L/kg and 1.05 L/kg and 0.81 L/kg
[6]
  IL-6 level in medium supernatant: could reduce the IL-6 level
  TNF-α level in medium supernatant: significantly reduced the TNF-α level
